Measured values reported in patent US3997662A, “Antibiotics and their preparation” (Rhone-Poulenc S.A., priority 1962, dated 1976).
Counter-ions that a name gives are not always drawn. Like-named read-outs stand apart in the source and are kept apart here.

How the values were obtained:
Solubility = assay type: physicochemical
[1] = tested on: transplantable tumours in the mouse; assay: Anti-cancer activity (general statement)
numerous bacteria = assay: Bacteriostatic activity (general statement); assay type: cell-based; settings: including antibiotic-resistant bacteria
Source text: For each organism, the lowest concentration of substance has been determined which, under the defined conditions, prevents all visible development in an appropriate nutritive broth. The results of various determinations are shown in Table VI, wherein the minimal bacteriostatic concentrations are expressed as micrograms of substance per cubic centimeter of experimental medium.

Klebsiella pneumoniae = assay: Activity by turbidimetric estimation against a 9865 RP control; assay type: cell-based; settings: purified product; units per mg, Klebsiella pneumoniae growth inhibition
Source text: The following non-limitative Examples illustrate the invention. […] This activity is expressed in units (u) per mg. for solid products and in units per cc. for solutions. (The unit is defined as the smallest quantity of product which, dissolved in 1 cc. of an appropriate medium, inhibits the growth of Klebsiella pneumoniae under the conditions in question.)

Compound | solubility in chloroform (Solubility; chloroform) | solubility in water (Solubility) | anti-cancer activity [1] | anti-cancer activity ([1]; listed as 13057 R.P.) | bacteriostatic activity (numerous bacteria) | solubility in benzene (Solubility; benzene) | solubility in diethyl ether (Solubility; diethyl ether) | solubility in ketones (Solubility; ketones) | activity (Klebsiella pneumoniae) [μ/mg.]
COc1cccc2c1C(=O)c1c(O)c3c(c(O)c1C2=O)C[C@@](O)(C(C)=O)C[C@@H]3O[C@H]1C[C@H](N)[C@H](O)[C@H](C)O1 [13057 RP hydrochloride] | slightly soluble | soluble | – | – | – | – | – | – | –
COc1cccc2c1C(=O)c1c(O)c3c(c(O)c1C2=O)C[C@@](O)(C(C)=O)C[C@@H]3O[C@H]1C[C@H](N)[C@H](O)[C@H](C)O1 [13057 RP] | – | very slightly soluble | most interesting of the new antibiotics | very pronounced | exerted against numerous bacteria | particularly insoluble | particularly insoluble | very slightly soluble | 160
